Test results from paper PMC12196264, “Design and Synthesis of Pyridine-Based Pyrrolo[2,3-d]pyrimidine Analogs as CSF1R Inhibitors: Molecular Hybridization and Scaffold Hopping Approach” (Pharmaceuticals, 2025).
Converted amounts (≈) assume the structure as drawn.

Assays:
[1] = Kinetic solubility; format: physicochemical; details: aqueous buffer, kinetic from dmso stock; spectrophotometric, pH 7.4 in HEPES buffer
Experimental: (§1) The aqueous solubility of the compounds and metabolic stability under oxidative conditions was performed as described previously.

[2] = test system: Ba/F3 cells engineered to be dependent on CSF1R but added additional IL-3; test: Cell viability assay with Ba/F3-hCSF1R cells with added IL-3; format: cell-based; details: Mus musculus, BaF3; Ba/F3 CSF1R cells with additional IL-3; read-out: Cellular Assay IC50 (μM), Ba/F3 IL-3
Experimental: (§2) Given the promising enzymatic activity of the synthesized derivatives, cellular assays were performed using Ba/F3 cells engineered to depend on constitutively active CSF1R. […] We have also previously observed a low correlation between enzymatic and cellular activities, which may arise from the enzymatic protein construct not accurately mimicking the active conformation of CSF1R in a cellular context.
(§3) Performed as reported previously.

[3] = biological target: cKIT (Homo sapiens, UniProt P10721); test: KIT-WT LanthaScreen binding assay (Kd); details: single eight-point titrations, TR-FRET LanthaScreen Binding Assay; R^2 of fit in parentheses; read-out: Enzymatic Assay KIT (Kd)
Sequence of cKIT (P10721 26-976): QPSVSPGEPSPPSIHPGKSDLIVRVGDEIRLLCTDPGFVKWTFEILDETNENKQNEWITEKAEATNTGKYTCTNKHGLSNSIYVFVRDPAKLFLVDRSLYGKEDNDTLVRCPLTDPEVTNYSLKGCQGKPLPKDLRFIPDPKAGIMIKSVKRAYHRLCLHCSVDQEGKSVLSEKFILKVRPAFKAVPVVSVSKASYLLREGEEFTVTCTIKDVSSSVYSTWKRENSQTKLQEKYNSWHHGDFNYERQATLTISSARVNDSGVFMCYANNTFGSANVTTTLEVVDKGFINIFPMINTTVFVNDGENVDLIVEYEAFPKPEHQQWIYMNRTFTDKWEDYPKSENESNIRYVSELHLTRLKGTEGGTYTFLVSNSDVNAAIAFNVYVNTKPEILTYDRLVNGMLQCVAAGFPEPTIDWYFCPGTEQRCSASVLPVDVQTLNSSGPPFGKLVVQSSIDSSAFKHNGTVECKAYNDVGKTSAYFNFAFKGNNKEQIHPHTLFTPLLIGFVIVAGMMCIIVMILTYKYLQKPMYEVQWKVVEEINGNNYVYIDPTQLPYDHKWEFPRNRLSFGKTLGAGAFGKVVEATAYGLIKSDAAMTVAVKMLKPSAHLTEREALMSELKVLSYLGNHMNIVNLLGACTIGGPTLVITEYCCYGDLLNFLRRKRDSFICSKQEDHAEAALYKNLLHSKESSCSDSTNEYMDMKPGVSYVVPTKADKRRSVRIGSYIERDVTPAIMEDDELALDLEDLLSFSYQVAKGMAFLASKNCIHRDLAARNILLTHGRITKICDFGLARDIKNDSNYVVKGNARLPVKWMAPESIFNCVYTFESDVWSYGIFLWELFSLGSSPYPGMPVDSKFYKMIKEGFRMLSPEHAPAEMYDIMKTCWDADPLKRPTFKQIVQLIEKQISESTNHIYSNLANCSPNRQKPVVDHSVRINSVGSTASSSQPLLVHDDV
Experimental: The TR-FRET-based LanthaScreen Binding Assay was performed to determine Kd values of synthesized derivatives against cKIT.
Subsequently, 8 µL of kinase anti-GST antibody mixture was added, followed by incubation at 4 °C for 30 min in a pre-cooled, humidified box to minimize edge effects. The reaction was initiated by adding 5 µL of tracer working solution and mixed on a Bioshake 5000 microplate shaker (Q Instruments, Jena, Germany). […] Kd values were calculated from sigmoidal dose-response curves using Scigilian Analyze software version 5.8.5.15 (Scigilian, Montreal, QC, Canada).

[4] = biological target: CSF1R (Homo sapiens, UniProt P07333); test: CSF1R enzymatic inhibitory assay (TR-FRET LANCE Ultra); format: biochemical; details: single eight-point titrations, ATP 25 μM, R^2 of fit in parentheses
Sequence of CSF1R (P07333 20-972): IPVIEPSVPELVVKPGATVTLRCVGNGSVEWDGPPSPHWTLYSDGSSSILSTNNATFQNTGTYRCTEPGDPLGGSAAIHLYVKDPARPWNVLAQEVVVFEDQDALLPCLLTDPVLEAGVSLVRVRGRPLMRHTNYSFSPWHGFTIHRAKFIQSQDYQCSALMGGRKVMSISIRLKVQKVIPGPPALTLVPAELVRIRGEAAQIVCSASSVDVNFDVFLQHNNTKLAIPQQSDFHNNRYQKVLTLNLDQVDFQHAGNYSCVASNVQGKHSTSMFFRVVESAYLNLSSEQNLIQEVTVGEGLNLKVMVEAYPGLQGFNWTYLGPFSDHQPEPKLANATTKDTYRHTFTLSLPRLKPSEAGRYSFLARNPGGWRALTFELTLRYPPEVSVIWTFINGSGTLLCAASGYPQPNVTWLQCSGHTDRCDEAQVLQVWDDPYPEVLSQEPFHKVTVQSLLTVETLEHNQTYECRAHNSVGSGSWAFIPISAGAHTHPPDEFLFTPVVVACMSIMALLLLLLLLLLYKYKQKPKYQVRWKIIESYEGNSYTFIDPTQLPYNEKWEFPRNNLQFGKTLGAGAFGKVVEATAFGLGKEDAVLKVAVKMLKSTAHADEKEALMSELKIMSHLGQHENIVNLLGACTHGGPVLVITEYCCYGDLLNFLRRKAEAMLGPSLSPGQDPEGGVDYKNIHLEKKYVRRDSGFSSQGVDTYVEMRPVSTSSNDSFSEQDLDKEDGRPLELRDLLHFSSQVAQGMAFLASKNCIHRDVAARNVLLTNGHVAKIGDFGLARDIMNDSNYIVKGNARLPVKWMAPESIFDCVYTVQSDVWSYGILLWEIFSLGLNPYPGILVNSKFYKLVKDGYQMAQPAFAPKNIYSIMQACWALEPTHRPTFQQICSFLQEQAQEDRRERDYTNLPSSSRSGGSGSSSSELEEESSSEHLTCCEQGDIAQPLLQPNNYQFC
Experimental: The TR-FRET-based LANCE Ultra assay (Perkin Elmer, Waltham, MA, USA) was used to determine IC50 values for various CSF1R inhibitors. Kinase activity and inhibition in this assay was measured as previously reported. Scigilian Analyze software version 5.8.5.15 (Scigilian, Montreal, QC, Canada) was used.

[5] = test system: Ba/F3 cells engineered to be dependent on CSF1R; test: Cell viability assay with Ba/F3-hCSF1R cells; format: cell-based; details: for IC50: Mus musculus, BaF3, Ba/F3 cells dependent on CSF1R, with standard deviation, read-out: Cellular Assay IC50 (μM), Ba/F3 CSF1R
Experimental: as §2, §3

[6] = MDCK permeability assay; format: in vitro ADME, canine; details: dog, MDCK monolayer; for Papp A→B: A–B direction; for Papp B→A: B–A direction; for efflux ratio: read-out: MDCK Ratio (Papp B–A/A–B)
Experimental: Six selected compounds were assessed for metabolic stability (clearance) in mouse liver microsomes (MLM) and human liver microsomes (HLM), and apparent permeability (Papp) using a MDCK permeability assay. […] Although currently limited by solubility and permeability, its metabolic profile provides a starting point for targeted structural modifications aimed at overcoming these challenges.

[7] = Microsomal stability, mouse liver microsomes; format: in vitro ADME; details: mouse liver microsome
Experimental: as §1

SMILES: Cc1cccc(CN(C)c2ncnc3[nH]cc(-c4ccc(NCc5cccnc5)nc4)c23)c1 [Compound 8, N-Methyl-N-(3-methylbenzyl)-5-(6-((pyridin-3-ylmethyl)amino)pyridin-3-yl)-7H-pyrrolo[2,3-d]pyrimidin-4-amine]
- solubility kinetic [1]: 70.4 µM (≈ 30.7 µg/mL)
- IC50 [2]: > 10 µM
- Kd [3]: 397 nM
- IC50 [4]: > 1000 nM
- IC50 [5]: 8.46 ± 0.89 µM
- Papp A→B [6]: 15.9 ×10⁻⁶ cm/s
- Papp B→A [6]: 4.4 ×10⁻⁶ cm/s
- efflux ratio [6]: 0.27
- MLM in vitro intrinsic clearing [7]: 1540.3 µL/min/mg

SMILES: Cc1cccc(CN(C)c2ncnc3[nH]c(-c4ccc(NCc5cccc(C)c5C)nc4)cc23)c1 [Compound 12d, 6-(6-((2,3-Dimethylbenzyl)amino)pyridin-3-yl)-N-methyl-N-(3-methylbenzyl)-7H-pyrrolo[2,3-d]pyrimidin-4-amine]
- Kd [3]: > 1000 nM
- IC50 [4]: > 1000 nM

SMILES: CN(Cc1ccc(NCc2ccccc2)nc1)c1ncnc2[nH]ccc12 [Compound 4a, N-((6-(Benzylamino)pyridin-3-yl)methyl)-N-methyl-7H-pyrrolo[2,3-d]pyrimidin-4-amine]
- solubility kinetic [1]: 20.9 µM (≈ 7.2 µg/mL)
- IC50 [2]: 1.39 ± 0.4 µM
- Kd [3]: > 1000 nM
- IC50 [4]: 857 nM
- Cellular activity in Ba/F3 CSF1R cells (in words) ([5]; Ba/F3 cells dependent on constitutively active CSF1R): relatively high cellular activity
- IC50 [5]: 1.16 ± 0.22 µM
- Papp A→B [6]: 34 ×10⁻⁶ cm/s
- Papp B→A [6]: 24.7 ×10⁻⁶ cm/s
- efflux ratio [6]: 0.72
- MLM in vitro intrinsic clearing [7]: 277.3 µL/min/mg

SMILES: CN(Cc1ccc(NCc2ccccn2)nc1)c1ncnc2[nH]ccc12 [Compound 4b, N-Methyl-N-((6-((pyridin-2-ylmethyl)amino)pyridin-3-yl)methyl)-7H-pyrrolo[2,3-d]pyrimidin-4-amine]
- solubility kinetic [1]: 441 µM (≈ 152 µg/mL)
- IC50 [2]: > 10 µM
- Kd [3]: > 1000 nM
- IC50 [4]: > 1000 nM
- IC50 [5]: > 10 µM
- Papp A→B [6]: 42 ×10⁻⁶ cm/s
- Papp B→A [6]: 28.8 ×10⁻⁶ cm/s
- efflux ratio [6]: 0.69
- MLM in vitro intrinsic clearing [7]: 101.9 µL/min/mg

SMILES: COc1ccc(CNc2ccc(-c3cc4c(N(C)Cc5cccc(C)c5)ncnc4[nH]3)cn2)cc1 [Compound 12e, 6-(6-((4-Methoxybenzyl)amino)pyridin-3-yl)-N-methyl-N-(3-methylbenzyl)-7H-pyrrolo[2,3-d]pyrimidin-4-amine]
- IC50 [2]: 9.25 µM
- Kd [3]: > 1000 nM
- IC50 [4]: 10.5 nM
- IC50 [5]: 6.24 µM

SMILES: FC(F)(F)c1ccc(CNc2ccc(Cc3c[nH]c4ncc(Cl)cc34)cn2)cn1 [Pexidartinib, reference compound]
- solubility kinetic [1]: 20.5 µM (≈ 8.57 µg/mL)
- IC50 [2]: 6.54 ± 0.61 µM
- IC50 [5]: 0.064 ± 0.04 µM
- Papp A→B [6]: 4.5 ×10⁻⁶ cm/s
- Papp B→A [6]: 1.5 ×10⁻⁶ cm/s

SMILES: Cc1cccc(CN(C)c2ncnc3[nH]c(-c4ccc(NCc5ccccc5)nc4)cc23)c1 [Compound 14a, 6-(6-(Benzylamino)pyridin-3-yl)-N-methyl-N-(3-methylbenzyl)-7H-pyrrolo[2,3-d]pyrimidin-4-amine]
- Kd [3]: > 1000 nM
- IC50 [4]: 6 nM

SMILES: CN(Cc1ccc(NCc2ccc(C(F)(F)F)nc2)nc1)c1ncnc2[nH]ccc12 [Compound 4c, N-Methyl-N-((6-(((6-(trifluoromethyl)pyridin-3-yl)methyl)amino)pyridin-3-yl)methyl)-7H-pyrrolo[2,3-d]pyrimidin-4-amine]
- solubility kinetic [1]: 20.9 µM (≈ 8.64 µg/mL)
- IC50 [2]: > 10 µM
- Kd [3]: > 1000 nM
- IC50 [4]: > 1000 nM
- IC50 [5]: 9.96 ± 0.02 µM
- Papp A→B [6]: 18.3 ×10⁻⁶ cm/s
- Papp B→A [6]: 10 ×10⁻⁶ cm/s
- efflux ratio [6]: 0.55
- MLM in vitro intrinsic clearing [7]: 150.7 µL/min/mg
